“Also recorded” adds a separate entry of the source.
Experiments:
[1] = tested on: HCT-116 (colon cancer); assay: MTT cell viability assay, HCT-116; assay type: cell-based, human; settings: for IC50: Homo sapiens, HCT-116, 72 h, MTT assay, 72 h of incubation; for Selectivity Index (SI) HCT-116: IC50 value toward HaCaT cells/IC50 value toward HCT-116
Method in brief: (§1)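 HCT-116 and HeLa cells in DMEM/10% FBS exposed 72 h to compounds over 1–100 µM. Viability by MTT (0.5 mg/mL, 2 h, 37 °C), formazan dissolved in DMSO and read at 550 nm; mean ± SD of at least three independent experiments.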

[2] = tested on: MCF-7 (breast cancer); assay: MTT cell viability assay, MCF-7; assay type: cell-based, human; settings: for IC50: MTT assay, 72 h of incubation; for Selectivity Index (SI) MCF-7: IC50 value toward HaCaT cells/IC50 value toward MCF-7
Method in brief: (§2)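 Cells in DMEM with 10% FBS, 3 × 10^3 per well, exposed to compounds at 1–100 µM for 72 h at 37 °C. MTT at 0.5 mg/mL for 2 h, formazan dissolved in DMSO and read at 550 nm. Mean ± SD of at least three independent experiments, each in triplicate.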

[3] = tested on: HeLa (cervical cancer); assay: MTT cell viability assay, HeLa; assay type: cell-based, human; settings: for IC50: Homo sapiens, HeLa, MTT assay, 72 h of incubation; for Selectivity Index (SI) HeLa: IC50 value toward HaCaT cells/IC50 value toward HeLa
Method in brief: as §1

[4] = tested on: HCT-116, MCF-7 and HeLa; assay: MTT cytotoxicity, summary statements on all tested tumor cell lines together; assay type: cell-based, human; settings: MTT 72 h
Method: Compounds 20–162 were evaluated in vitro for their effects on the viability of three cancer cell lines: HCT-116 (colon cancer), MCF-7 (breast cancer) and HeLa (cervical cancer), as well as the non-cancerous keratinocyte cell line (HaCaT). […] Analysis was performed using an MTT assay after 72 h of incubation.
(§3) Cell viability was examined using the MTT [3-(4,5-dimethylthiazol-2-yl)-2,5-diphenyltetrazolium bromide] assay. Cells were seeded in 96-well plates at a density of 3 × 10^3 cells/well and treated for 72 h with the tested compounds in the concentration range of 1–100 µM. Then, MTT (0.5 mg/mL) was added to the medium and cells were further incubated for 2 h at 37 °C. In the next stage, cells were lysed with DMSO and the absorbance of the formazan solution was measured at 550 nm with a plate reader (1420 multilabel counter, Victor, Jügesheim, Germany). The experiment was performed in triplicate. Values are expressed as the mean ± SD of at least three independent experiments. Cisplatin was used as a positive control.

[5] = tested on: T47D (breast cancer cell line); assay: MTT assay, mutant p53 breast cancer cells T47D; assay type: cell-based; settings: 72 h of incubation
Method: (§4) Thus, the ability of the selected compounds to exert cytotoxic activity toward cell lines harboring mutant p53 was examined. Compounds displaying a high selectivity index (Table 6) were selected for the analysis of their activity toward ovarian and breast cancer cells with wild-type p53 (A2780, MCF-7) and mutant p53 (SKOV-3, T47D).
as §3
(§5) Compounds 48, 62, 134, 138 and 140 were further examined toward MCF7 (breast cancer cell line, ATCC, HTB-22), T47D (breast cancer cell line, DSMZ ACC 739), A2780 (ovarian carcinoma cell line, ECACC, 93112519), and SKOV3 (ovarian carcinoma cell line, ATCC, HTB-77) cells. Cells were grown in Dulbecco’s Modified Eagle Medium (DMEM) supplemented with 10% fetal bovine serum (Thermo Fisher Scientific).

[6] = tested on: SKOV3 (ovarian carcinoma cell line); assay: MTT assay, mutant p53 ovarian cancer cells SKOV-3; assay type: cell-based
Method: as §4, §3, §5

[7] = tested on: MCF7 (breast cancer cell line, ATCC, HTB-22); assay: MTT assay, wild-type p53 breast cancer cells MCF-7 (Table 11); assay type: cell-based, human; settings: 72 h of incubation, wild-type p53, second determination
Method: as §4, §3, §5

[8] = tested on: MDM2-p53 interactions; assay: Western blot of MDM2 and p53 protein levels in MCF-7 cells; assay type: cell-based, human; settings: 4 µM and 10 µM, 24-h incubation
Method: Thus, the effects of the examined compounds on the inhibition of MDM2-p53 interactions were examined. MDM2 and p53 protein levels were determined with Western blot analysis after the treatment of MCF-7 cells with compounds selected for their high selectivity index (48, 62, 134, 138, and 140). Compounds were examined at different concentrations (4 µM and 10 µM) following a 24-h incubation (Figure 7).
Proteins were transferred to an Immobilon-P PVDF membrane (Merck Millipore, Burlington, MA, USA). The membranes were incubated for 1 h using 5% low-fat milk solution in 1× TBS (50 mM Tris-Cl, pH 7.5, 150 mM NaCl) as a blocking buffer and then overnight at 4 °C in the same blocking solution containing one of the following antibodies: anti-MDM2 (rabbit, Sigma-Aldrich AB-166, Burlington, MA, USA), anti-p53 (rabbit, Sigma-Aldrich S15) or α-tubulin (rabbit, 11H10, Cell Signaling, Danvers, MA, USA). After washing (3 × 10 min in TBS), membranes were incubated for 2 h in room temperature with the adequate HRP-conjugated secondary antibody: goat anti-rabbit IgG (1:5000, Abcam, Cambridge, UK; cat. 97051). Membranes were developed using an HRP detection kit WesternBright Quantum (Advansta, San Jose, CA, USA; cat. K-12042).

[9] = tested on: HaCaT (human keratinocyte cell line); assay: MTT cell viability assay, non-cancerous HaCaT; assay type: cell-based; settings: 72 h of incubation, non-cancerous keratinocytes
Method in brief: as §2

[10] = tested on: A2780 (ovarian carcinoma cell line); assay: MTT assay, wild-type p53 ovarian cancer cells A2780; assay type: cell-based
Method: as §4, §3, §5

[11] = Homo sapiens, SK-OV-3, 72 h of incubation
[12] = Homo sapiens, A2780, 72 h of incubation

IC50 [1] | IC50 ([2]; Homo sapiens, MCF7, 72 h) | IC50 [3] | IC50 ([5]; Homo sapiens, T47D) | IC50 [6, 11] | IC50 ([7]; Homo sapiens, MCF7) | IC50 [10, 12] | Compound | cytotoxic activity for all tested cell lines (in words) [4] | Selectivity Index (SI) HCT-116 [1] | Selectivity Index (SI) MCF-7 [2] | MDM2 and p53 protein levels [8] | Selectivity Index (SI) HeLa [3] | IC50 ([9]; Homo sapiens, HaCaT, 72 h) | IC50 [5] | IC50 ([6]; 72 h of incubation) | IC50 [2] | IC50 [7] | IC50 [9] | IC50 ([10]; 72 h of incubation)
170 ± 3 µM | 145 ± 7 µM | 153 ± 5 µM |  |  |  |  | Cc1cc(S(=O)(=O)N=C2NCCN2)c(SCc2nc(N)nc(N3CCN(C)CC3)n2)cc1Cl [Compound 30] | inactive |  |  |  |  |  |  |  |  |  |  | 
6 ± 0.1 µM | 7 ± 0.1 µM | 107 ± 1 µM | 4.9 ± 0.1 µM | 10.1 ± 0.1 µM | 10.4 ± 0.1 µM | 3.9 ± 0.1 µM | Cc1cc(S(=O)(=O)N=C2NCCN2Cc2ccccc2)c(SCc2nc(N)nc(N3CCN(c4ccc(Cl)cc4)CC3)n2)cc1Cl [Compound 62] |  | 5.3 | 4.5 | no changes | 0.3 | 32 ± 1 µM |  |  |  |  |  | 
168 ± 8 µM | 153 ± 5 µM | 140 ± 7 µM |  |  |  |  | Cc1cc(S(=O)(=O)N=C2NCCN2Cc2ccccc2)c(SCc2nc(N)nc(N3CCN(c4ccc([N+](=O)[O-])cc4)CC3)n2)cc1Cl [Compound 67] | inactive; also recorded: loss of activity |  |  |  |  |  |  |  |  |  |  | 
300 ± 18 µM | 490 ± 10 µM | 550 ± 21 µM |  |  |  |  | Cc1cc(S(=O)(=O)N=C2NCCN2Cc2ccccc2)c(SCc2nc(N)nc(N3CCN(S(=O)(=O)c4ccccc4)CC3)n2)cc1Cl [Compound 70] | loss of activity |  |  |  |  |  |  |  |  |  |  | 
155 ± 6 µM | 205 ± 4 µM | 265 ± 8 µM |  |  |  |  | Cc1ccc(S(=O)(=O)N2CCN(c3nc(N)nc(CSc4cc(Cl)c(C)cc4S(=O)(=O)N=C4NCCN4Cc4ccccc4)n3)CC2)cc1 [Compound 71] | loss of activity |  |  |  |  | 27 ± 1 µM |  |  |  |  |  | 
105 ± 4 µM | 10 ± 0.5 µM | 115 ± 2 µM |  |  |  |  | Cc1cc(S(=O)(=O)N=C2NCCN2Cc2ccc(C(F)(F)F)cc2)c(SCc2nc(N)nc(N(C)C)n2)cc1Cl [Compound 118] | inactive |  |  |  |  | > 500 µM |  |  |  |  |  | 
5 ± 0.2 µM | 11 ± 0.1 µM | 10 ± 0.6 µM | 3.2 ± 0.1 µM | 5.7 ± 0.1 µM | 7.8 ± 0.1 µM | 3.9 ± 0.1 µM | Cc1cc(S(=O)(=O)N=C2NCCN2Cc2ccc(C(F)(F)F)cc2)c(SCc2nc(N)nc(N3CCN(c4ccc(C(F)(F)F)cc4)CC3)n2)cc1Cl [Compound 134] |  | 4.4 | 2.0 | no changes | 2.2 | 22 ± 1 µM |  |  |  |  |  | 
6 ± 0.2 µM | 9 ± 0.5 µM | 9 ± 0.6 µM | 4.4 ± 0.1 µM | 5.8 ± 0.1 µM | 8.2 ± 0.1 µM | 2.2 ± 0.1 µM | Cc1cc(S(=O)(=O)N=C2NCCN2Cc2ccc(C(F)(F)F)cc2)c(SCc2nc(N)nc(N3CCN(c4ccc(Cl)c(Cl)c4)CC3)n2)cc1Cl [Compound 138] |  |  |  | no changes |  | 22 ± 1 µM |  |  |  |  |  | 
 |  |  |  |  |  |  | N.N.[Cl][Pt][Cl] [cisplatin, reference compound] |  |  |  |  |  |  | 3.1 ± 0.1 µM | 71 ± 0.1 µM | 3 ± 0.1 µM | 3 ± 0.1 µM | 7.7 ± 0.2 µM | 1.4 ± 0.1 µM

Source: article PMC9267128, “New 2-[(4-Amino-6-N-substituted-1,3,5-triazin-2-yl)methylthio]-N-(imidazolidin-2-ylidene)-4-chloro-5-methylbenzenesulfonamide Derivatives, Design, Synthesis and Anticancer Evaluation” (International Journal of Molecular Sciences, 2022)
